The values that follow come from US6596692B1, “Substance P analogs for the treatment of cancer” (Dabur Research Foundation, priority 2000, dated 2003).

Non-standard residues stand in square brackets, D forms with d. Residues, ends and D or L forms follow the SMILES beside them. *: point of attachment. Octanoyl = CCCCCCCC(=O)*; pHOPA = not defined here; Ac5c = NC1(C(=O)O)CCCC1; Butyryl = CCCC(=O)*

The subject of data set [1] is L132 (lung). The experiment in a line: In vitro cytotoxic activity, MTT assay, 72 hours. It is filed as cell-based, human. On the procedure: (§1) In vitro Cytotoxic Activity of the Novel Synthesized Peptide Analogs
(§2) The cytotoxic activity of synthesized peptides was tested on six human tumor cell lines namely MCF7 (breast), U373 (glioblastoma), PTC, (colon), L132 (lung), Su.86.86 (pancreas), and KB (oral). The tumor cells were collected at exponential growth phase and resuspended in medium (1.5×10^6 cells/ml in RPMI 1640 containing 10% FBS). 150 μL of medium was added to the wells of a 96-well tissue culture plate (Nunc, Denmark) followed by 30 μl of cell suspension. The plate was left in an incubator (37° C., 5% CO2) overnight. 20 μl of the peptide (100 pM to 10 μM concentration) was added to marked wells of the 96-well plate. Each concentration was plated in triplicate. 20 μl of medium alone was added to control wells while wells without cells served as blanks. A total volume of 200 μL was ensured in each well and plate was left in incubator (37° C., 5% CO2). After 72 hours of incubation an MTT assay was performed and percentage cytotoxicity was calculated with respect to control cells.
A general note: Tetrazolium assays rely on reduction of a dye to a coloured formazan, in cell work by metabolically active cells.

Data set [2] has as its system KB (oral). As to the kind of experiment: In vitro cytotoxic activity, MTT assay, 72 hours. The data set is classed as cell-based, human. Conditions: 100 pM. As for the experimental part:
as §1, §2

The subject of data set [3] is PTC (colon). The experiment in a line: In vitro cytotoxic activity, MTT assay, 72 hours. It is filed as cell-based, human. As for the experimental part:
as §1, §2

For data set [4], the system named is human colon adenocarcinoma (PTC) xenografts. As to the kind of experiment: In vivo anti tumor activity on PTC tumor xenografts. Set-up: species or system Balb/c athymic nude mice. Conditions: 4.25 μg intravenously twice a day; for Tumor volumes, Average: group average. On the procedure:
In vivo Anti Tumor Activity of Substance P Analogs on PCT Tumor Xenografts Protocol The anti tumor activity of substance P analogs was studied in human colon adenocarcinoma (PTC) xenografts in nude mice. PTC tumor xenografts were grown in Balb/c athymic nude mice by subcutaneous inoculation of a single cell suspension of PTC cells (15×10^6 cells/100 μL). The tumor bearing animals were divided into 4 groups of three animals each including one group comprising untreated control animals. Treatment with Substance P Receptor Antagonists was initiated when the average tumor volumes, as measured using a vernier caliper, were between 400-800 mm^3. SEQ ID NO:5, SEQ ID NO:7 and SEQ ID NO:8 peptides were prepared at a concentration of 42.5 μg/ml and intravenously administered to the assigned group of tumor bearing animals at a dose of 4.25 μg/100 μL twice a day so that the total dose of 8.5 μg was administered to each animal. The treatment was continued for a period of 10 days. The antitumor activity of the compounds was monitored by measuring 15 tumor volumes every fourth day using the formula W*W*L*0.4 (W=smaller diameter, L=larger diameter). The percentage inhibition of tumor growth was calculated using. the formula (1−tumor volume-treated/ tumor volume-control)×100.

Data set [5] deals with SCLC cells. Conditions: SCLC proliferation; read-out: IC50, inhibition of SCLC proliferation; cited from earlier work.
Data set [6] relates to H69 SCLC cells. Conditions: cited from earlier work.
Data set [7] relates to H69 SCLC cells xenografts. Conditions: xenografts in vivo in nude mice; cited from earlier work.
The subject of data set [8] is Swiss 3T3 cells. Conditions: cited from earlier work.
The test system of data set [9] is H-69 SCLC cells. To be noted: liquid culture and semi-solid media, read-out: IC50, inhibition of proliferation; cited from earlier work.
For data set [10], the system named is H-510 SCLC cells. To be noted: liquid culture and semi-solid media, read-out: IC50, inhibition of proliferation; cited from earlier work.
The subject of data set [11] is SCLC xenografts. To be noted: cited from earlier work.

As to `CCCC(=O)N[C@H](CCCNC(=N)N)C(=O)N1CCC[C@H]1C(=O)N[C@@H](CCCCN)C(=O)N1CCC[C@H]1C(=O)N[C@H](Cc1ccccc1)C(=O)N[C@@H](CCC(N)=O)C(=O)N[C@H](Cc1c[nH]c2ccccc12)C(=O)N[C@@H](Cc1ccccc1)C(=O)N[C@H](Cc1c[nH]c2ccccc12)C(=O)N[C@@H](CC(C)C)C(=O)NC1(C(N)=O)CCCC1` [SEQ ID NO: 7, Butanoyl-D-Arg-Pro-Lys-Pro-D-Phe-Gln-D-Trp-Phe-D-Trp-Leu-Ac5c-NH2] (Butyryl-[dR]PKP[dF]Q[dW]F[dW]L[Ac5c]-NH2), the Percentage cytotoxicity in data set [1] (100 nM) was 9 ± 2.3%; in data set [1] (10 μM), 15 ± 2.3%; in data set [2] it was “Nil”; in [3] (100 pM), “Nil”; in [3] (1 nM), “Nil”. Further, the “Tumor volumes, animal I” value in data set [4] (Day 6) was found to be 25.6 mm^3; in [4] (Day 8), 176.4 mm^3; in data set [4] (Day 12), 580.8 mm^3; in [4] (Day 15) it was 946.4 mm^3; in data set [4] (Day 19), 1741 mm^3; in data set [4] (Day 22) it was 2018 mm^3. For the same compound, the “Tumor volumes, animal II” value in [4] (Day 6) came out at 66.6 mm^3; in data set [4] (Day 8), 260.1 mm^3; in data set [4] (Day 12) it was 1440 mm^3; in data set [4] (Day 15), 2427.6 mm^3; in data set [4] (Day 19), 2253 mm^3; in [4] (Day 22) it was 3110 mm^3. In addition, the “Tumor volumes, animal III” value in data set [4] (Day 6) stood at 0 mm^3; in data set [4] (Day 8), 72 mm^3; in data set [4] (Day 12), 281.6 mm^3; in data set [4] (Day 15) it was 864 mm^3; in data set [4] (Day 19), 1800 mm^3; in data set [4] (Day 22) it was 0 mm^3. The “Tumor volumes, Average” value in data set [4] (Day 6) was determined as 30.7 mm^3; in data set [4] (Day 8) it was 169.5 mm^3; in data set [4] (Day 12) it was 767.4 mm^3; in data set [4] (Day 15) it was 1412.6 mm^3; in data set [4] (Day 19), 1931.3 mm^3; in data set [4] (Day 22), 1709.3 mm^3.
Take `CCCCCCCC(=O)N[C@H](CCCNC(=N)N)C(=O)N1CCC[C@H]1C(=O)N[C@@H](CCCCN)C(=O)N1CCC[C@H]1C(=O)N[C@H](Cc1ccccc1)C(=O)N[C@@H](CCC(N)=O)C(=O)N[C@H](Cc1c[nH]c2ccccc12)C(=O)N[C@@H](Cc1ccccc1)C(=O)N[C@H](Cc1c[nH]c2ccccc12)C(=O)N[C@@H](CC(C)C)C(=O)NC1(C(N)=O)CCCC1` [SEQ ID NO: 8, Octanoyl-D-Arg-Pro-Lys-Pro-D-Phe-Gln-D-Trp-Phe-D-Trp-Leu-Ac5c-NH2] (Octanoyl-[dR]PKP[dF]Q[dW]F[dW]L[Ac5c]-NH2): the “Tumor volumes, animal I” value turned out to be 532.4 mm^3 in data set [4] (Day 6); 1020.6 mm^3 in data set [4] (Day 8); 2080.8 mm^3 in [4] (Day 12); 3880.8 mm^3 in data set [4] (Day 15); 3520.0 mm^3 in data set [4] (Day 19); 2312.0 mm^3 in [4] (Day 22). The “Tumor volumes, animal II” value in [4] (Day 6) is on record as 291.6 mm^3; in data set [4] (Day 8) it was 691.2 mm^3; in data set [4] (Day 12), 1440 mm^3; in [4] (Day 15), 2592 mm^3; in [4] (Day 19) it was 1474.8 mm^3; in data set [4] (Day 22), 36 mm^3. Also, the “Tumor volumes, animal III” value in data set [4] (Day 6) was 0 mm^3; in data set [4] (Day 8), 0 mm^3; in data set [4] (Day 12), 156.8 mm^3; in [4] (Day 15), 580.8 mm^3; in data set [4] (Day 19) it was 1710 mm^3; in data set [4] (Day 22), 3177 mm^3. For the same compound, the “Tumor volumes, Average” value in data set [4] (Day 6) stood at 274.6 mm^3; in [4] (Day 8), 570.6 mm^3; in [4] (Day 12) it was 1225.8 mm^3; in data set [4] (Day 15) it was 2351.2 mm^3; in [4] (Day 19) it was 2234.9 mm^3; in data set [4] (Day 22), 1841.6 mm^3.
For “D-MePhe-D-Trp-Phe-DTrp-Leu-MPA [Analog 7]”, the IC50 in data set [5] is 5 µM.
In the case of “D-MePhe-D-Trp-Phe-D-TrpLeu(psi)-(CH2NH)-Leu-NH2) [Analog 6]”, the IC50 in [5] was 2 µM.
Take “pHOPA-D-Trp-Phe-D-Trp-Leu-Leu-NH2 (pHOPA-[dW]F[dW]LL-NH2; reading uncertain) [Analog R]”: the “inhibition of proliferation of H69 SCLC cells in vitro” value in data set [6] is listed as “inhibit the proliferation”. For the same compound, the “inhibition of proliferation of H69 SCLC cells in xenografts” value in data set [7] was “inhibit the proliferation”.
Regarding “[D-Arg^1, D-Phe^5, D-Trp^7,9, Leu^11] substance P [Antagonist D]”, the “potency relative to antagonist A” value in [8] (preventing cellular effects of bombesin/GRP and vasopressin in mouse 3T3 cells, also growth of SCLC cells in serumfree medium) was “five fold more potent than antagonist A”. Besides, the IC50 in data set [9] and in data set [10] was 5 µM in each case.
As for “[Arg^6,D-Trp^7,9, MePhe^8] substance P(6-11) [antagonist G]”, the “inhibition of SCLC xenografts in vivo” value in data set [11] was “showed inhibition of SCLC xenografts in vivo”. Besides, in data set [8] (blocking bombesin/GRP mediated mitogenesis in Swiss 3T3 cells), the “potency relative to antagonist D” value is given as “ten fold less potent than antagonist D”.
